Measurements published in the supplement of paper PMC10307832.

Experiments:
Assay in all cases: relative viability (nuclei count vs DMSO), 5 days (fraction); higher = more cells survive
[1] = compound: CN[C@@H]1C[C@H]2O[C@@](C)([C@@H]1OC)n1c3ccccc3c3c4c(c5c6ccccc6n2c5c31)C(=O)NC4 [Staurosporine] + Cc1nc(NC(=O)N2CCC[C@H]2C(N)=O)sc1-c1ccnc(C(C)(C)C(F)(F)F)c1 [Alpelisib] (partner 2 µM)
Summary of the method: (§1)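 Relative viability was taken as the ratio of nuclei in treated wells to nuclei in vehicle wells. Lung cancer cell lines in 1536-well plates received compounds by pin tool one day after seeding, either one drug alone or a fixed anchor-drug dose plus five library-drug doses (not always all listed) in √10 steps. Nuclei were counted on 4× images after 5 days of treatment, and values are medians of duplicate plates.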

[2] = compound: CN[C@@H]1C[C@H]2O[C@@](C)([C@@H]1OC)n1c3ccccc3c3c4c(c5c6ccccc6n2c5c31)C(=O)NC4 [Staurosporine] + CC(C)C[C@H](NC(=O)[C@H](Cc1ccccc1)NC(=O)c1cnccn1)B(O)O [Bortezomib] (partner 0.002 µM)
Summary of the method: as §1

Sulindac + Vorinostat = compound: CC1=C(CC(=O)O)c2cc(F)ccc2/C1=C\c1ccc([S+](C)[O-])cc1 [Sulindac] + O=C(CCCCCCC(=O)Nc1ccccc1)NO [Vorinostat] (partner 1 µM)
Summary of the method: as §1

Sulindac + AZD7762 = compound: CC1=C(CC(=O)O)c2cc(F)ccc2/C1=C\c1ccc([S+](C)[O-])cc1 [Sulindac] + NC(=O)Nc1cc(-c2cccc(F)c2)sc1C(=O)N[C@H]1CCCNC1 [AZD7762] (partner 0.2 µM)
Summary of the method: as §1

Cell Line | relative viability ([1]; first compound 0.005 µM) | relative viability ([1]; first compound 0.01581 µM) | relative viability ([1]; first compound 0.05 µM) | relative viability ([1]; first compound 0.1581 µM) | relative viability ([1]; first compound 0.5 µM) | relative viability ([2]; first compound 0.005 µM) | relative viability ([2]; first compound 0.01581 µM) | relative viability ([2]; first compound 0.05 µM) | relative viability ([2]; first compound 0.1581 µM) | relative viability ([2]; first compound 0.5 µM) | relative viability (Sulindac + Vorinostat; first compound 0.08 µM) | relative viability (Sulindac + Vorinostat; first compound 0.253 µM) | relative viability (Sulindac + Vorinostat; first compound 0.8 µM) | relative viability (Sulindac + Vorinostat; first compound 2.53 µM) | relative viability (Sulindac + Vorinostat; first compound 8 µM) | relative viability (Sulindac + AZD7762; first compound 0.08 µM) | relative viability (Sulindac + AZD7762; first compound 0.253 µM) | relative viability (Sulindac + AZD7762; first compound 0.8 µM) | relative viability (Sulindac + AZD7762; first compound 2.53 µM) | relative viability (Sulindac + AZD7762; first compound 8 µM)
NCI-H727 | 0.27 | 0.291 | 0.212 | 0.234 | 0.148 | 0.703 | 0.354 | 0.345 | 0.352 | 0.158 | 1.35 | 1.21 | 0.998 | 1.18 | 1.24 | 0.575 | 0.643 | 0.473 | 0.582 | 0.616
NCI-H838 | 0.274 | 0.208 | 0.19 | 0.246 | 0.114 | 0.289 | 0.0982 | 0.133 | 0.15 | 0.0919 | 0.736 | 0.777 | 0.762 | 0.726 | 0.713 | 1.05 | 0.976 | 0.843 | 0.886 | 1.04
NCI-H1355 | 0.718 | 0.422 | 0.21 | 0.215 | 0.203 | 1.09 | 0.693 | 0.259 | 0.202 | 0.209 | 0.586 | 0.721 | 0.488 | 0.619 | 0.723 | 0.842 | 0.748 | 0.71 | 0.765 | 0.858
NCI-H1437 | 0.918 | 0.663 | 0.487 | 0.413 | 0.242 | 0.356 | 0.167 | 0.294 | 0.0975 | 0.0786 | 0.951 | 0.872 | 0.749 | 0.837 | 0.876 | 1.18 | 1.12 | 1.1 | 1.14 | 1.11
NCI-H1651 | 0.778 | 0.564 | 0.385 | 0.223 | 0.109 | 0.997 | 0.772 | 0.661 | 0.368 | 0.349 | 0.623 | 0.57 | 0.486 | 0.577 | 0.593 | 0.516 | 0.508 | 0.318 | 0.492 | 0.506
NCI-H1666 | 0.582 | 0.371 | 0.375 | 0.177 | 0.175 | 0.638 | 0.468 | 0.493 | 0.29 | 0.189 | 0.981 | 1.06 | 0.867 | 0.891 | 1.1 | 0.869 | 0.878 | 0.776 | 0.847 | 0.945
NCI-H1734 | 0.635 | 0.344 | 0.239 | 0.202 | 0.149 | 0.741 | 0.316 | 0.251 | 0.127 |  | 0.844 | 0.826 | 0.664 | 0.78 | 1.05 | 0.646 | 0.587 | 0.519 | 0.621 | 0.73
NCI-H1755 | 0.591 | 0.418 | 0.183 | 0.16 | 0.14 | 0.788 | 0.364 | 0.251 | 0.171 | 0.157 | 0.751 | 0.772 | 0.754 | 0.77 | 0.753 | 0.424 | 0.429 | 0.628 | 0.456 | 0.498
NCI-H1915 | 1.11 |  | 0.587 | 0.445 | 0.357 | 1.04 |  | 0.327 | 0.118 | 0.154 | 0.555 | 0.577 | 0.508 | 0.539 | 0.574 | 0.703 | 0.734 | 0.645 | 0.664 | 0.761
NCI-H1975 | 0.238 | 0.201 | 0.15 | 0.108 | 0.104 | 0.22 | 0.144 | 0.143 | 0.129 |  | 0.804 | 0.737 | 0.634 | 0.738 | 0.77 | 0.868 | 0.715 | 0.699 | 0.695 | 0.819
NCI-H1993 | 0.623 | 0.668 | 0.578 | 0.503 | 0.449 |  | 0.44 | 0.463 | 0.483 | 0.315 | 0.861 | 0.668 | 0.663 | 0.779 | 0.764 | 0.717 | 0.854 | 0.606 | 0.695 | 0.854
NCI-H2085 | 0.609 | 0.53 | 0.495 | 0.343 | 0.28 | 0.856 | 0.565 | 0.604 | 0.499 | 0.402 | 0.728 | 0.814 | 0.77 | 0.652 | 0.818 | 0.904 | 0.988 | 0.834 | 0.945 | 0.95
NCI-H2087 | 0.875 | 0.624 | 0.449 | 0.118 | 0.125 | 0.761 | 0.548 | 0.39 | 0.175 | 0.113 | 1.02 | 0.622 | 0.561 | 0.662 | 0.722 | 1.73 | 1.52 | 0.983 | 1.48 | 1.4
NCI-H2126 | 0.827 | 0.636 | 0.495 | 0.426 | 0.341 | 1.1 | 0.817 | 0.777 | 0.371 | 0.387 | 0.902 | 0.79 | 0.721 | 0.715 | 0.839 | 1.12 | 1.03 | 0.889 | 1.01 | 1.09
NCI-H2347 | 1.03 | 0.67 | 0.34 | 0.364 |  | 1.21 | 0.443 | 0.359 | 0.413 | 0.402 | 0.668 | 0.702 | 0.46 | 0.713 | 0.593 | 0.711 | 0.778 | 0.653 | 0.737 | 0.817
NCI-H2405 | 0.185 | 0.131 | 0.101 | 0.075 | 0.0622 | 0.314 | 0.165 | 0.188 | 0.163 | 0.134 | 1.08 | 1.04 | 0.923 | 0.971 | 1.28 | 0.86 | 0.811 | 0.642 | 0.691 | 0.995
